{"source": "patent US20070166547A1", "about": "“Use of a layer consisting of hydrophobic linear, or two-dimensional polycyclic aromatics as a barrier layer or an encapsulation and electric components constructed with a layer of this type and comprising organic polymers” (priority 2003, published 2007)", "key": {"plasma hemostasis": {"system": "plasma hemostasis", "assay": "Autocoagulation test (coagulating activity A) after intravenous administration", "assay_type": "in vivo, rabbit", "procedure": "The investigations were performed on 72 rabbits of the “Chinchilla” breed with a mass of 2.5±0.3 kg, who were administered which solutions of compounds 2, 15, 21, 37 in doses of 15, 30 and 60 mg/kg intravenously. The experiments included the thrombin-test (series No. 7300) and the coagulability-test (series No. 5000) purchased from the scientific-and-production association (SPA) “Renam”, thromboplastin (series No. 240600) and calcium chloride purchased from the SPA “MedioLab”\nThe static parameters of the blood and plasma coagulation (partial activated thromboplastin time, thrombin time, maximum coagulation activity (test for auto coagulation) were determined using the Behnk Electronic coagulometer (Germany). The operating principle of this instrument is based on the fact that the formed blood clot breaks the contacts of the pulse counter in the flask-pin circuit, said pin permanently oscillating in a vertical plane. The moment of formation of the clot is registered by stopping the stop watch hand.\nThe measurements were effected at a constant temperature of 37° C. maintained by a temperature control unit.\nCompounds 2, 15, 21, 37 according to the invention at a concentration of 15, 30 and 60 mg/kg were intravenously administered to the above experimental animals and their blood samples were taken off 15, 30, 60 and 120 minutes after the administration.\nAdded to 0.2 ml of plasma obtained by centrifuging citrate blood at 1500 rev/min within 10 minutes was a glycosilate-calcium mixture (2.0 ml 0.222% CaCl2+0.1 ml of investigated citrate blood) 4, 6, 8, 10 minutes after the preparation of this mixture and the time of coagulation in the sample was determined.\nThe obtained results in seconds were translated in factors of coagulating activity A in percent, which specify the state of both the coagulating and anticoagulating parts of the blood coagulating system."}, "[1]": {"system": "indicator enzymes in blood plasma", "assay": "Morphine abstinence model: indicator enzymes AST, ALT, γ-GTP in blood plasma", "assay_type": "in vivo, rats Wistar", "procedure": "The experiments were carried out on rats in series of 7 animals on each compound according to the invention. Non-morphinized animal with not administered with compounds according to the invention were used as a control group. […] Then the rats were decapitated, the blood from somnolent arteries was collected in test tubes with solution EDTA as an anticoagulant, centrifuged at 1500 g for 15 minutes at 4° C.\nTo estimate possible hepatoprotective action of the compounds according to the invention under conditions of development of an oxidizing stress in the liver cells, effect of these compounds on the most important biochemical blood indexes, in particular, on the content in blood plasma of indicator enzyme of aspartateaminotransferase (AST), alanineaminotransferase (ALT), γ-glutamiletranspeptidase (γ-GTP) was investigated. The content of enzymes was estimated by their catalyzing activity in blood plasma.\nThe activity of AST, ALT and γ-GTP was determined by means of diagnostic sets DiaSys, Germany."}, "[2]": {"system": "synthase of nitrogen oxide (NOC)", "assay": "Morphine abstinence model: activity of synthase of nitrogen oxide (radiometric, [3H]L-citrulline)", "assay_type": "in vivo, rats Wistar"}, "[3]": {"system": "adenosine-sensitive receptors of thrombocytes", "assay": "ADP-induced aggregation of thrombocytes in vitro (Born method)", "assay_type": "cell-based, rabbit", "conditions": "3 min incubation, ADP 10^−5 M", "how_it_was_run": "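Platelet-rich plasma from fasted male Chinchilla rabbits (citrated, […]), stirred at 37° C. ADP at 10^−5 M final was added, then compounds at 10^−3 to 10^−7 M for 3 min. Read-out was maximum aggregation amplitude as % fall in optical density, with platelet-poor plasma as 0%.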"}, "[4]": {"conditions": "compound alone 20.0 mg/kg intramuscularly"}, "[5]": {"conditions": "morphinized rats then compound 20.0 mg/kg intramuscularly"}}, "data": [{"smiles": "O=c1[nH][nH]c(=O)c2c(Br)ncnc12.[K]", "note": "[Compound 37, potassium salt of 4-bromine-pyrimido[4,5-D]-6H-pyridazine-5,8-dione]", "values": [{"measurement": "A, % after 15 minutes (coagulating activity)", "setting": "plasma hemostasis; dose 15.0 mg/kg intravenously", "value": 82.1, "unit": "%"}, {"measurement": "A, % after 30 minutes (coagulating activity)", "setting": "plasma hemostasis; dose 15.0 mg/kg intravenously", "value": 102.8, "unit": "%"}, {"measurement": "A, % after 60 minutes (coagulating activity)", "setting": "plasma hemostasis; dose 15.0 mg/kg intravenously", "value": 88.7, "unit": "%"}, {"measurement": "A, % after 120 minutes (coagulating activity)", "setting": "plasma hemostasis; dose 15.0 mg/kg intravenously", "value": 100.6, "unit": "%"}, {"measurement": "A, % after 15 minutes (coagulating activity)", "setting": "plasma hemostasis; dose 30.0 mg/kg intravenously", "value": 99.8, "unit": "%"}, {"measurement": "A, % after 30 minutes (coagulating activity)", "setting": "plasma hemostasis; dose 30.0 mg/kg intravenously", "value": 68.3, "unit": "%"}, {"measurement": "A, % after 60 minutes (coagulating activity)", "setting": "plasma hemostasis; dose 30.0 mg/kg intravenously", "value": 105.8, "unit": "%"}, {"measurement": "A, % after 120 minutes (coagulating activity)", "setting": "plasma hemostasis; dose 30.0 mg/kg intravenously", "value": 70.4, "unit": "%"}, {"measurement": "A, % after 15 minutes (coagulating activity)", "setting": "plasma hemostasis; dose 60.0 mg/kg intravenously", "value": 74.3, "unit": "%"}, {"measurement": "A, % after 30 minutes (coagulating activity)", "setting": "plasma hemostasis; dose 60.0 mg/kg intravenously", "value": 63.0, "unit": "%"}, {"measurement": "A, % after 60 minutes (coagulating activity)", "setting": "plasma hemostasis; dose 60.0 mg/kg intravenously", "value": 64.2, "unit": "%"}, {"measurement": "A, % after 120 minutes (coagulating activity)", "setting": "plasma hemostasis; dose 60.0 mg/kg intravenously", "value": 66.3, "unit": "%"}, {"measurement": "effect on the coagulation activity, autocoagulation test (overall)", "setting": "plasma hemostasis; doses 15.0, 30.0, 60.0 mg/kg", "value": "have no effect on the coagulation activity"}, {"measurement": "ALT, Ci, mE/l, Control + compound", "setting": "[1]; [4]", "value": "113.84 ± 2.0", "unit": "mE/l"}, {"measurement": "AST, Ci, mE/l, Control + compound", "setting": "[1]; [4]", "value": "174.82 ± 4.91", "unit": "mE/l"}, {"measurement": "γ-GTP, Ci, mE/l, Control + compound", "setting": "[1]; [4]", "value": "8.14 ± 2.64", "unit": "mE/l"}, {"measurement": "ALT, Ci, mE/l, control + Morphine + Compound", "setting": "[1]; [5]", "value": "120.84 ± 5.20", "unit": "mE/l"}, {"measurement": "AST, Ci, mE/l, control + Morphine + Compound", "setting": "[1]; [5]", "value": "193.58 ± 14.18", "unit": "mE/l"}, {"measurement": "γ-GTP, Ci, mE/l, control + Morphine + Compound", "setting": "[1]; [5]", "value": "10.32 ± 2.67", "unit": "mE/l"}, {"measurement": "Activity of NOC, Hypothalamus, Control + Compound", "setting": "[2]; [4]", "value": "5.61 ± 0.22 pmol/min/mg of protein"}, {"measurement": "Activity of NOC, Mesencephalon, Control + Compound", "setting": "[2]; [4]", "value": "2.62 ± 0.27 pmol/min/mg of protein"}, {"measurement": "Activity of NOC, Hypothalamus, Control + Morphine + compound", "setting": "[2]; [5]", "value": "5.59 ± 0.22 pmol/min/mg of protein"}, {"measurement": "Activity of NOC, Mesencephalon, Control + Morphine + compound", "setting": "[2]; [5]", "value": "1.85 ± 0.30 pmol/min/mg of protein"}, {"measurement": "MA - fall of optical density of plasma, % to the standard", "setting": "[3]; 10^−3 M", "value": "46.9 ± 2.7", "unit": "%"}, {"measurement": "MA - fall of optical density of plasma, % to the standard", "setting": "[3]; 10^−4 M", "value": "47.1 ± 2.0", "unit": "%"}, {"measurement": "MA - fall of optical density of plasma, % to the standard", "setting": "[3]; 10^−5 M", "value": "40.6 ± 1.7", "unit": "%"}, {"measurement": "MA - drop of optical density, % compared to control", "setting": "[3]; 10^−6 M", "value": "48.1 ± 2.9", "unit": "%"}, {"measurement": "MA - drop of optical density, % compared to control", "setting": "[3]; 10^−7 M", "value": "50.1 ± 1.0", "unit": "%"}]}]}
